Values of other authors as cited in patent US7939561B2, “Blister packaging for acute pain regimens” (APR Applied Pharma Research s.a., priority 2006, dated 2011).

SMILES: O=C(O)Cc1ccccc1Nc1c(Cl)cccc1Cl [diclofenac potassium]
- behaviour in an acidic environment: tendency to precipitate
